How the values were obtained:
[1] = test system: Sprague-Dawley rats; experiment: Methamphetamine-induced locomotor activation in rats; assay type: in vivo, rat; conditions: for locomotor activity, EC2 alone versus saline: 30.0 mg/kg IP; for METH-induced locomotor activation: EC2 30.0 mg/kg IP + METH 1 mg/kg
Text: Adult male Sprague-Dawley rats (n=5-6/group, Harlan Sprague-Dawley Inc., Indianapolis, Ind., USA) were used in this study. Rats were housed three per cage in polypropylene cages in a temperature- and humidity-controlled room maintained on a 12:12 light/dark cycle (lights on at 7:00). Food and water were available ad libitum. Protocols were approved by the Baylor College of Medicine Institutional Animal Care and Use Committee and followed the “Principles of Laboratory Animal Care” (NIH publication No. 85-23, revised 1996). Facilities were accredited by the American Association of Laboratory Animal Care.
The TruScan photobeam activity system (Coulbourn Instruments, Allentown, Pa., USA) was used to measure horizontal and vertical distance traveled in centimeters (cm). This system includes a clear arena (16″L×16″W×15.5″D) that had two sets of infrared sensors with one located at floor level and the other 2.5″ above floor level. Data from beam breaks were tabulated and analyzed by a PC computer and using a Coulbourn Instruments software system (TruScan 2.03).
Drug solutions were prepared fresh daily. To test the effects of EC2 on METH locomotor activation, groups of rats were administered vehicle (saline), METH (1 mg/kg), EC2 (30.0 mg/kg) and EC2+METH. Pretreatment time was 30 min for EC2.
Testing began on the next day (day 1) and continued for the next five days. Rats were administered drugs according to group and immediately placed in the activity chambers for 60 min.
Data were first assessed with normality (Shapiro-Wilk) and equal variance tests. Distance traveled (cm), which reflects ambulatory activity, and vertical distance (cm) were the primary dependent variables analyzed. Habituation locomotor activity (baseline habituation, HAB) was assessed using a One-Way ANOVA with treatment as the main factor, and Student-Newman-Keuls Method was used for post-hoc comparisons. […] Dunn's method was used for post-hoc multiple comparisons between groups. Data are presented as mean±SEM and significant p values set at <0.05.
The preceding example was continued for 5 days. Data from day 5 passed normality and equal variance tests and were analyzed with One-Way ANOVA with treatment as the main factor. Post-hoc pairwise multiple comparison procedures were performed using Student-Newman Keuls Method was used to determine group differences. Data are presented as mean±SEM and significant p values set at <0.05.

[2] = test system: CYP 3A4; experiment: CYP induction, 3A4; assay type: in vitro ADME
[3] = test system: synaptic levels of serotonin, norepinephrine, and dopamine in rat prefrontal cortex; experiment: Synaptic monoamine levels in rat prefrontal cortex after oral treatment; assay type: in vivo; conditions: greater effects on serotonin and norepinephrine than dopamine
[4] = test system: humans; experiment: Positive subjective effects in humans (abuse potential)
[5] = biological target: 5-HT2B (Homo sapiens, UniProt P41595); experiment: Receptor binding studies, 5-HT2B; conditions: at 10 uM
Sequence of 5-HT2B (P41595 whole entry, species assumed): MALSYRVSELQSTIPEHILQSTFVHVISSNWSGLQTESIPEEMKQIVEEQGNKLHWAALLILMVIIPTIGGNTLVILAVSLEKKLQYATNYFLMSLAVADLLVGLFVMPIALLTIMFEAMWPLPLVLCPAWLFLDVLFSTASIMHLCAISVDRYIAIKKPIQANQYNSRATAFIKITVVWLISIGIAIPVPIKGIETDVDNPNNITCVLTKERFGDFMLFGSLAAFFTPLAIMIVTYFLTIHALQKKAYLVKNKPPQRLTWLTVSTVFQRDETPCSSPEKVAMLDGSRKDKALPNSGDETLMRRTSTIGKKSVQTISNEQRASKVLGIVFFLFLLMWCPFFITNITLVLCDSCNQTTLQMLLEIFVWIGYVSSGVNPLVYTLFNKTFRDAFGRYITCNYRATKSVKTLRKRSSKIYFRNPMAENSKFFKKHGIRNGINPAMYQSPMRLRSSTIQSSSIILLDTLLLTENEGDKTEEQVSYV
Text: Binding at σ1 is not problematic, as SSRIs are known to have similar activities.

[6] = biological target: T1, serotonin transporter (Rattus norvegicus, UniProt P31652); experiment: Monoamine uptake into rat synaptosomes, serotonin; assay type: biochemical
T1 construct: from tissue; host or cells: rat synaptosomes
T1 sequence (P31652 whole entry): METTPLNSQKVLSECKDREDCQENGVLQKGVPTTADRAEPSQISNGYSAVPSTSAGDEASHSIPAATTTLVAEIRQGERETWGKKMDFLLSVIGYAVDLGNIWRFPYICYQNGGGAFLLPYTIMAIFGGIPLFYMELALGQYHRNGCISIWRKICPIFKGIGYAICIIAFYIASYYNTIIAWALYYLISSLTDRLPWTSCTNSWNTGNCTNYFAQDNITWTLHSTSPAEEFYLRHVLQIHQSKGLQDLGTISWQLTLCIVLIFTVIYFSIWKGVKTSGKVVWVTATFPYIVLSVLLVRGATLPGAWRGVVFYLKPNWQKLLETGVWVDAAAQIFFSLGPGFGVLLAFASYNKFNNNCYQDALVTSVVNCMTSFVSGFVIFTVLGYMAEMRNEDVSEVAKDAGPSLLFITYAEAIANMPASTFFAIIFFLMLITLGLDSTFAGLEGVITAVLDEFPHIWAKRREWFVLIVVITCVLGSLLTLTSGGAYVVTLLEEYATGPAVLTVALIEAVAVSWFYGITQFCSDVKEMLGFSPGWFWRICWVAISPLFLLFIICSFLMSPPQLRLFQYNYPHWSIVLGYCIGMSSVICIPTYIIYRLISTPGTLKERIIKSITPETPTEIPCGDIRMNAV

[7] = test system: locomotor activity; experiment: Locomotor activity, screening test for stimulant-like effects; conditions: in vivo
[8] = Metabolic stability in hepatocytes; assay type: in vitro ADME, human
[9] = test system: micronucleus; experiment: Genotoxicity testing, micronucleus
[10] = Metabolic stability in human liver microsomes; assay type: in vitro ADME
[11] = biological target: T2, dopamine transporter (Rattus norvegicus, UniProt P23977); experiment: Monoamine uptake into rat synaptosomes, dopamine; assay type: biochemical
T2 construct: from tissue; host or cells: rat synaptosomes
T2 sequence (P23977 whole entry): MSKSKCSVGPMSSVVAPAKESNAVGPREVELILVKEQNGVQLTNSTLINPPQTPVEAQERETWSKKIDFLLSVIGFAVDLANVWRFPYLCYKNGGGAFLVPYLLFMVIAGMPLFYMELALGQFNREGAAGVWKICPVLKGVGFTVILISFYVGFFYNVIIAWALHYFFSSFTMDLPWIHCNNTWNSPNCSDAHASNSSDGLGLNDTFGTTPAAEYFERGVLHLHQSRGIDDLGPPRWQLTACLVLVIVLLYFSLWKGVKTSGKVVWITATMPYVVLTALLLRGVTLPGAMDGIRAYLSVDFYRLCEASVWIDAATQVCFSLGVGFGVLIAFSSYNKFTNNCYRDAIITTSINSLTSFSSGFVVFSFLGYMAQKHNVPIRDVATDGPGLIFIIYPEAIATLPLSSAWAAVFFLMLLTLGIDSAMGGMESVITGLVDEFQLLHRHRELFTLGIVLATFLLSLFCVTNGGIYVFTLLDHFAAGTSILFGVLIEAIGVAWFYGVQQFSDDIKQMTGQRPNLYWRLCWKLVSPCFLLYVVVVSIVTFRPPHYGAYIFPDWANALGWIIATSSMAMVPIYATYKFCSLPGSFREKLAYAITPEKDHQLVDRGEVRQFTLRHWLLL

[12] = biological target: CYP450 3A4 (Homo sapiens, UniProt P08684); experiment: CYP450 inhibition, 3A4; assay type: in vitro ADME
Sequence of CYP450 3A4 (P08684 whole entry): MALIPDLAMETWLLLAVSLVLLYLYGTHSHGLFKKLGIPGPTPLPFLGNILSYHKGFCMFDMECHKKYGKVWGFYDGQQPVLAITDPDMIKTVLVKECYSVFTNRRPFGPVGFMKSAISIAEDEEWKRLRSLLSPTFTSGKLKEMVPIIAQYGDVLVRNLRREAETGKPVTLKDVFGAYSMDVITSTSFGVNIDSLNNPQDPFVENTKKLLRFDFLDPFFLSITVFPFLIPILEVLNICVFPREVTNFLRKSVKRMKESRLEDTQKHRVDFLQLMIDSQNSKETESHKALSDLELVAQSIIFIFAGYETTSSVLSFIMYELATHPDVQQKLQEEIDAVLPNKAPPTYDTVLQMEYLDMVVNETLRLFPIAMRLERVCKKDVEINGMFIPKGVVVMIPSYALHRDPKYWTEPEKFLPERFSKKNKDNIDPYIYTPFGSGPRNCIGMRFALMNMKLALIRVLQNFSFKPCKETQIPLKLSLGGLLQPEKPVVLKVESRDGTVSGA

[13] = biological target: CYP450 2D6 (Homo sapiens, UniProt P10635); experiment: CYP450 inhibition, 2D6; assay type: in vitro ADME; conditions: at 10 uM
Sequence of CYP450 2D6 (P10635 whole entry): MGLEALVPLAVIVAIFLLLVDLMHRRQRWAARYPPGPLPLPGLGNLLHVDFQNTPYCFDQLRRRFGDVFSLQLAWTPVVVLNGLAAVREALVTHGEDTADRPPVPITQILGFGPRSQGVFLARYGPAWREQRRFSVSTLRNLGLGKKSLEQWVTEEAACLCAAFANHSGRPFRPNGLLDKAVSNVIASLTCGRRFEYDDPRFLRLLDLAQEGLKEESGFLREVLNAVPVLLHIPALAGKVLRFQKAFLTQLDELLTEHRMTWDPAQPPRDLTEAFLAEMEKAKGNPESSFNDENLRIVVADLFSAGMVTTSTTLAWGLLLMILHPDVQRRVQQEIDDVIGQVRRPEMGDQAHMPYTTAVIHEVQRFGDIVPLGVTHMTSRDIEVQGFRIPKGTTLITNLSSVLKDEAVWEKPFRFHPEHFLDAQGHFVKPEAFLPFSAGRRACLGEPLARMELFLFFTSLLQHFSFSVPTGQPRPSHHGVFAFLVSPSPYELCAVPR

[14] = biological target: T3, norepinephrine transporter (Rattus norvegicus, UniProt Q63380); experiment: Monoamine uptake into rat synaptosomes, norepinephrine; assay type: biochemical
T3 construct: from tissue; host or cells: rat synaptosomes
T3 sequence (Q63380 1-617): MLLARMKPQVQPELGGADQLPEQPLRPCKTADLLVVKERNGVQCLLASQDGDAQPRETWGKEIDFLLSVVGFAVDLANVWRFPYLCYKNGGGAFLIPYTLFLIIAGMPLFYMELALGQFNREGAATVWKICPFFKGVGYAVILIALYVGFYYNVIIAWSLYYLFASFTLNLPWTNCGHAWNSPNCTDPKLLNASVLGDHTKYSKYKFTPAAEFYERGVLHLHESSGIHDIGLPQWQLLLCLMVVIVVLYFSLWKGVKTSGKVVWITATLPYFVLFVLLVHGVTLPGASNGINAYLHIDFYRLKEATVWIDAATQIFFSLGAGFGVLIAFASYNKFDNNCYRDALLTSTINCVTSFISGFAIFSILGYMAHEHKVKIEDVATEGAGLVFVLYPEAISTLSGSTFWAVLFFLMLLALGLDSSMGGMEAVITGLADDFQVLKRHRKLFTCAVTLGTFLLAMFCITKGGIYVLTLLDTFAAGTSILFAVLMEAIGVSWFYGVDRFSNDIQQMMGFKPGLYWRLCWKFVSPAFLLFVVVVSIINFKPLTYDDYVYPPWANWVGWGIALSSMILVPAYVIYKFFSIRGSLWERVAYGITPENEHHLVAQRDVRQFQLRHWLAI

[15] = biological target: hERG channel (Homo sapiens, UniProt Q12809); experiment: hERG channel inhibition; conditions: accompanied by offsetting inhibition of other ion channels
Sequence of hERG channel (Q12809 whole entry): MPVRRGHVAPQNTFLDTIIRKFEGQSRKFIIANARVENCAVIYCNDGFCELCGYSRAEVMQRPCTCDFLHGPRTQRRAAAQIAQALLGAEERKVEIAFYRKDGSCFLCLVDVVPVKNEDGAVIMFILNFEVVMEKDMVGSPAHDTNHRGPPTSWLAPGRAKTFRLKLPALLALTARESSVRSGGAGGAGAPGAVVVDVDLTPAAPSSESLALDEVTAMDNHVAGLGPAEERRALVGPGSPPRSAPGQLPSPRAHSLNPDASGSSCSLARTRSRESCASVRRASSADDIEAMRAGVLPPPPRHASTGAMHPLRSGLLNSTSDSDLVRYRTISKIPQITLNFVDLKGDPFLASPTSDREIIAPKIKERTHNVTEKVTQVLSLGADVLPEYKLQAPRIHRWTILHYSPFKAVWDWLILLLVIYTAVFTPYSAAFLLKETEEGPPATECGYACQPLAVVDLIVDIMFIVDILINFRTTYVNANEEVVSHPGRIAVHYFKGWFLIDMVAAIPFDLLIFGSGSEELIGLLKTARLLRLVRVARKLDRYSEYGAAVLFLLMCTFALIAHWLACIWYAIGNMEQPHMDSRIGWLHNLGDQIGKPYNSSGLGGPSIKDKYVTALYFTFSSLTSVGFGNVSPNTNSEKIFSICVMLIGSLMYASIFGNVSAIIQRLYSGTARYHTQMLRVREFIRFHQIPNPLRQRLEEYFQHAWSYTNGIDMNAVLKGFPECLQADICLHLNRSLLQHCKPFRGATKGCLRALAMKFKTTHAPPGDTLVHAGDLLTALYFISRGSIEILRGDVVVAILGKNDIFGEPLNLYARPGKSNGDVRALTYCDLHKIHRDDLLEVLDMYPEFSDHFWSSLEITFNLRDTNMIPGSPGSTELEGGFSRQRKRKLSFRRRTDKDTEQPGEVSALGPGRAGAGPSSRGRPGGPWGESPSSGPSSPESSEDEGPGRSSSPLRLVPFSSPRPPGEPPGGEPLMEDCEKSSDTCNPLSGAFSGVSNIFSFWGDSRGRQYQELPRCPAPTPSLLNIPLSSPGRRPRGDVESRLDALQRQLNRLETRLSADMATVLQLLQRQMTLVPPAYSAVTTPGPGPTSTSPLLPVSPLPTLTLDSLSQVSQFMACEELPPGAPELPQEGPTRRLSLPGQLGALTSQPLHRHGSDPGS

[16] = biological target: CYP450 1A2 (Homo sapiens, UniProt P05177); experiment: CYP450 inhibition, 1A2; assay type: in vitro ADME
Sequence of CYP450 1A2 (P05177 whole entry): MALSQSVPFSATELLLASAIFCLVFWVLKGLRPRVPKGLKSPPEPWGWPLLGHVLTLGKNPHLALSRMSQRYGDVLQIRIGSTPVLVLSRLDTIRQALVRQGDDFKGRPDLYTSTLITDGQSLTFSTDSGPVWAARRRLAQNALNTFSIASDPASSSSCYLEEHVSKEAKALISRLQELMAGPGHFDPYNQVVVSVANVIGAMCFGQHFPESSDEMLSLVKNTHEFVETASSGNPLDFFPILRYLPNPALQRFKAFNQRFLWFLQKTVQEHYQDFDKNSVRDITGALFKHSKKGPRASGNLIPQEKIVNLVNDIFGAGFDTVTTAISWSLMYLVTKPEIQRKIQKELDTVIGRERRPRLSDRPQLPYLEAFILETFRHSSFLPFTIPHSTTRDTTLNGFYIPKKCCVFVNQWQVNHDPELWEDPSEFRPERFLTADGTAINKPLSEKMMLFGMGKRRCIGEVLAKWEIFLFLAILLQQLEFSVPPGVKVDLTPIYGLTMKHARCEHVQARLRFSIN

[17] = PK parameters in monkey; conditions: in vivo
[18] = test system: healthy volunteers; experiment: Multiple ascending dose study in healthy volunteers; assay type: in vivo, human; conditions: multiple dose
Description: (§1) This double-blind, placebo controlled study enrolled 50 participants divided into 10 per dosing group. In each group of 10, 7 received active medication and 3 received placebo to maintain the blind. The doses tested were 25 mg BID, 75 mg QD, 50 mg BID, 75 mg BID, and 100 mg BID.

[19] = as above; assay type: in vivo, human; conditions: human, plasma, daily doses up to 11 days, for most doses, read-out: elimination half-life during chronic treatment (converted)
Description: as §1

[20] = PK parameters in dog; conditions: in vivo

SMILES: c1ccc2cc([C@H]([C@H]3CCCNC3)n3ncnn3)ccc2c1 [Example Compound 2, (3S)-3-[(S)-naphthalen-2-yl(2H-tetrazol-2-yl)methyl]piperidine]
- locomotor activity, EC2 alone versus saline ([1]; day 5, both activity measures): did not differ from saline
- locomotor activity, EC2 alone versus saline ([1]; over 5 days, both activity measures): did not differ from saline
- METH-induced locomotor activation ([1]; day 5, more apparent on vertical distance): significantly attenuated
- METH-induced locomotor activation ([1]; over 5 days, more apparent on vertical distance): significantly attenuated
- induction of CYP 3A4 [2]: does not induce
- effect on synaptic levels of serotonin, norepinephrine, and dopamine [3]: clear effects on all three monoamines
- positive subjective effects in humans [4]: does not produce positive subjective effects
- inhibition of binding at 5-HT2B [5]: 56 % inhibition
- IC50 [6]: 37 nM
- increases in locomotor activity [7]: does not cause increases
- metabolic stability [8]: high
- genotoxicity, micronucleus [9]: negative
- metabolic stability [10]: high
- IC50 [11]: 74 nM
- inhibition of CYP450 3A4 [12]: does not inhibit
- inhibition of CYP450 2D6 [13]: does inhibit
- IC50 [14]: 65 nM
- hERG channel inhibition [15]: moderate
- inhibition of CYP450 1A2 [16]: does not inhibit
- half-life [17]: 5.8 h
- bioavailability ([17]; po, monkeys): 10%
- effects on vital signs or on QTc [18]: no effects
- primary adverse events [18]: nausea, vomiting and headache
- plasma concentration versus dose ([18]; across all doses): proportional to dose
- half-life [19]: ~6 h
- half-life [20]: 2 h
- bioavailability ([20]; po, dogs): 45%

Source: patent US9637470B2, “Treatment for substance use disorders and stress disorders” (Baylor College of Medicine, priority 2013, dated 2017)
